This is an account of results in US9447044B2, “Thioaryl derivatives as GPR120 agonists” (LG LIFE SCIENCES LTD., priority 2012, dated 2016).

For the first assay, the target named is T1, hGPR120 (Homo sapiens, UniProt Q5NUL3).
T1 construct: expressed in transfected cells; host or cells: CHO-K1
T1 sequence (Q5NUL3 1-361): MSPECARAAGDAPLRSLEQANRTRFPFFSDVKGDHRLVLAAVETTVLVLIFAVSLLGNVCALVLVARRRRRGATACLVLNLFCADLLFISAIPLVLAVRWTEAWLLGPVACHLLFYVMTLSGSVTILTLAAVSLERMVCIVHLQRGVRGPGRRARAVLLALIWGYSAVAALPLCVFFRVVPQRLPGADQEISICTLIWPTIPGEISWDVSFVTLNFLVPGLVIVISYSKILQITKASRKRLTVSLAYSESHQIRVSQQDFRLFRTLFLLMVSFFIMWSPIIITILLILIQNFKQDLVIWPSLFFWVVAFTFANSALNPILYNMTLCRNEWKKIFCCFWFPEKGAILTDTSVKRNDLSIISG
The assay is described as follows: Measurement of activity of GPR120 agonist (cell-based assay), calcium fluorescence. As to conditions: CHO-K1 cells expressing Ga16 and hGPR120; Calcium 5 dye fluorescence; activity class. The procedure, abridged:
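CHO-K1 cells co-expressing Gα16 and hGPR120, loaded with Calcium 5 dye for 1 h at 37° C, received serially diluted agonists (final 0.5% DMSO). Fluorescence (Ex 485/Em 525 nm) was expressed as relative percent over 0.1% DMSO-only wells; activity binned as A >20 μM, B 20–2 μM, C 2–0.2 μM, D <0.2 μM.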
Take `Cc1c(OCc2cccc(SC(C)C)n2)ccc(C2CC2C(=O)O)c1C` (stereo not drawn) [Example 114, 2-[4-(6-isopropylsulfanyl-pyridin-2-ylmethoxy)-2,3-dimethyl-phenyl]-cyclopropane carboxylic acid]: the 50% effective concentration (EC50) (in general, the concentration that produces a half-maximal response) was 2000 to 20000 nM.

As for `O=C(O)C1CC1Cc1cc(F)c(OCc2cccc(SC3CCC3)n2)c(F)c1` (stereo not drawn) [Example 115, 2-[4-(6-cyclobutylsulfanyl-pyridin-2-ylmethoxy)-3,5-difluoro-benzyl]-cyclopropane carboxylic acid], the half-maximal effective concentration (EC50) was below 200 nM.

As to `CC(C)Sc1ncccc1COc1c(F)cc(CC2CC2C(=O)O)cc1F` (stereo not drawn) [Example 116, 2-[3,5-difluoro-4-(2-isopropylsulfanyl-pyridin-3-ylmethoxy)-benzyl]-cyclopropane carboxylic acid], the 50% effective concentration (EC50) was 200 to 2000 nM.

Turning to `O=C(O)CC1CC1c1ccc(OCc2cccc(SC3CCCC3)n2)c(F)c1` (stereo not drawn) [Example 120, {2-[4-(6-cyclopentylsulfanyl-pyridin-2-ylmethoxy)-3-fluoro-phenyl]-cyclopropyl}-acetic acid], the concentration giving a half-maximal response (EC50) fell in the range of 200 to 2000 nM.

Take `CCCSc1ncccc1COc1ccc(C2CC2CC(=O)O)cc1F` (stereo not drawn) [Example 121, {2-[3-fluoro-4-(2-propylsulfanyl-pyridin-3-ylmethoxy)-phenyl]-cyclopropyl}-acetic acid]: the EC50 was below 200 nM.

In the case of `O=C(O)Cc1coc2c(F)c(OCc3cccnc3SC3CCCC3)c(F)cc12` [Example 122, [6-(2-cyclopentylsulfanyl-pyridin-3-ylmethoxy)-5,7-difluoro-benzofuran-3-yl]-acetic acid], the EC50 was below 200 nM.

Take `O=C(O)CC1COc2c1cc(F)c(OCc1cccnc1SC1CCCC1)c2F` (stereo not drawn) [Example 123, [6-(2-cyclopentylsulfanyl-pyridin-3-ylmethoxy)-5,7-difluoro-2,3-dihydro-benzofuran-3-yl]-acetic acid]: the concentration giving a half-maximal response (EC50) was below 200 nM.

For the compound `O=C(O)C1CC1c1ccc(OCc2cccnc2SCC2CC2)c(Cl)c1` (stereo not drawn) [Example 127, 2-[3-chloro-4-(2-cyclopropylmethylsulfanyl-pyridin-3-ylmethoxy)-phenyl]-cyclopropane carboxylic acid], the EC50 was below 200 nM.

Turning to `O=C(O)C1CC1c1ccc(OCc2cccc(SC3CCC3)n2)c(Cl)c1` (stereo not drawn) [Example 132, 2-[3-chloro-4-(6-cyclobutylsulfanyl-pyridin-2-ylmethoxy)-phenyl]-cyclopropane carboxylic acid], the EC50 was below 200 nM.

As to `CCCSc1ncccc1COc1c(F)cc(C2CC2C(=O)O)cc1F` (stereo not drawn) [Example 139, 2-[3,5-difluoro-4-(2-propylsulfanyl-pyridin-3-ylmethoxy)-phenyl]-cyclopropane carboxylic acid], the concentration giving a half-maximal response (EC50) is below 200 nM.

With `CC(C)Sc1cccc(COc2ccc(CCC(=O)O)cc2Cl)n1` [Example 141, 3-[3-chloro-4-(6-isopropylsulfanyl-pyridin-2-ylmethoxy)-phenyl]-propionic acid], the EC50 is below 200 nM.

On to `O=C(O)CCc1ccc(OCc2cccc(SC3CCCC3)n2)c(Cl)c1` [Example 143, 3-[3-chloro-4-(6-cyclopentylsulfanyl-pyridin-2-ylmethoxy)-phenyl]-propionic acid], for which the half-maximal effective concentration (EC50) was below 200 nM.

On to `CCCSc1ncccc1COc1ccc(CCC(=O)O)cc1F` [Example 144, 3-[3-fluoro-4-(2-propylsulfanyl-pyridin-3-ylmethoxy)-phenyl]-propionic acid], for which the EC50 is below 200 nM.

For the compound `O=C(O)CCc1ccc(OCc2cccnc2SC2CCC2)c(F)c1` [Example 145, 3-[4-(2-cyclobutylsulfanyl-pyridin-3-ylmethoxy)-3-fluoro-phenyl]-propionic acid], the half-maximal effective concentration (EC50) is below 200 nM.

As for `O=C(O)CCc1ccc(OCc2cccnc2SC2CCCC2)c(F)c1` [Example 146, 3-[4-(2-cyclopentylsulfanyl-pyridin-3-ylmethoxy)-3-fluoro-phenyl]-propionic acid], the concentration giving a half-maximal response (EC50) is below 200 nM.

As for `O=C(O)CCc1ccc(OCc2cccc(SC3CCC3)n2)c(F)c1` [Example 148, 3-[4-(6-cyclobutylsulfanyl-pyridin-2-ylmethoxy)-3-fluoro-phenyl]-propionic acid], the EC50 is below 200 nM.

Turning to `CC(C)Sc1cccc(COc2ccc(CCC(=O)O)cc2F)n1` [Example 149, 3-[3-fluoro-4-(6-isopropylsulfanyl-pyridin-2-ylmethoxy)-phenyl]-propionic acid], the EC50 is below 200 nM.

On to `O=C(O)CCc1ccc(OCc2cccc(SC3CCCC3)n2)c(F)c1` [Example 150, 3-[4-(6-cyclopentylsulfanyl-pyridin-2-ylmethoxy)-3-fluoro-phenyl]-propionic acid], for which the EC50 was below 200 nM.

With `O=C(O)CCc1ccc(OCc2cccc(SCC3CC3)n2)c(F)c1` [Example 151, 3-[4-(6-cyclopropylmethylsulfanyl-pyridin-2-ylmethoxy)-3-fluoro-phenyl]-propionic acid], the half-maximal effective concentration (EC50) was below 200 nM.

In the case of `CC(C)Sc1cccc(COc2c(F)cc(C3CC3C(=O)O)cc2F)n1` (stereo not drawn) [Example 152, 2-[3,5-difluoro-4-(6-isopropylsulfanyl-pyridin-2-ylmethoxy)-phenyl]-cyclopropane carboxylic acid], the EC50 is below 200 nM.

`O=C(O)C1CC1c1cc(F)c(OCc2cccc(SCC3CC3)n2)c(F)c1` (stereo not drawn) [Example 153, 2-[4-(6-cyclopropylmethylsulfanyl-pyridin-2-ylmethoxy)-3,5-difluoro-phenyl]-cyclopropane carboxylic acid]: the EC50 was below 200 nM.

Take `O=C(O)C1CC1c1cc(F)c(OCc2cccc(SC3CCC3)n2)c(F)c1` (stereo not drawn) [Example 155, 2-[4-(6-cyclobutylsulfanyl-pyridin-2-ylmethoxy)-3,5-difluoro-phenyl]-cyclopropane carboxylic acid]: the EC50 is below 200 nM.

With `O=C(O)CCc1ccc(OCc2cccnc2SCC2CC2)c(Cl)c1` [Example 157, 3-[3-chloro-4-(2-cyclopropylmethylsulfanyl-pyridin-3-ylmethoxy)-phenyl]-propionic acid], the half-maximal effective concentration (EC50) is below 200 nM.

`O=C(O)CCc1ccc(OCc2cccnc2SC2CCC2)c(Cl)c1` [Example 158, 3-[3-chloro-4-(2-cyclobutylsulfanyl-pyridin-3-ylmethoxy)-phenyl]-propionic acid]: the EC50 was below 200 nM.

In the case of `O=C(O)CCc1ccc(OCc2cccc(SC3CCC3)n2)c(Cl)c1` [Example 159, 3-[3-chloro-4-(6-cyclobutylsulfanyl-pyridin-2-ylmethoxy)-phenyl]-propionic acid], the EC50 is below 200 nM.

In the case of `Cc1ccc(COc2ccc(CCC(=O)O)cc2Cl)c(SC2CCCC2)n1` [Example 161, 3-[3-chloro-4-(2-cyclopentylsulfanyl-6-methyl-pyridin-3-ylmethoxy)-phenyl]-propionic acid], the EC50 fell in the range of 200 to 2000 nM.

Regarding `CC(C)Sc1ncccc1COc1ccc(C2CC2C(=O)O)cc1F` (stereo not drawn) [Example 162, 2-[3-fluoro-4-(2-isopropylsulfanyl-pyridin-3-ylmethoxy)-phenyl]-cyclopropane carboxylic acid], the EC50 was below 200 nM.

For the compound `O=C(O)C1CC1c1ccc(OCc2cccc(SCC3CC3)n2)c(F)c1` (stereo not drawn) [Example 170, 2-[4-(6-cyclopropylmethylsulfanyl-pyridin-2-ylmethoxy)-3-fluoro-phenyl]-cyclopropane carboxylic acid], the EC50 is below 200 nM.

Staying with this assay, now noted: CHO-K1 cells expressing Ga16 and hGPR120; Calcium 5 dye fluorescence; numeric value.
With `CCCSc1ncccc1COc1c(F)cc(CC2CC2C(=O)O)cc1F` (stereo not drawn) [Example 117, 2-[3,5-difluoro-4-(2-propylsulfanyl-pyridin-3-ylmethoxy)-benzyl]-cyclopropane carboxylic acid], the EC50 was 108 nM.

`Cc1c(OCc2cccnc2SC2CCCC2)ccc2c(CC(=O)O)coc12` [Example 118, [6-(2-cyclopentylsulfanyl-pyridin-3-ylmethoxy)-7-methyl-benzofuran-3-yl]-acetic acid]: the concentration giving a half-maximal response (EC50) came to 135 nM.

With `CC(C)Sc1ncccc1COc1ccc(C2CC2C(=O)O)cc1Cl` (stereo not drawn) [Example 126, 2-[3-chloro-4-(2-isopropylsulfanyl-pyridin-3-ylmethoxy)-phenyl]-cyclopropane carboxylic acid], the EC50 was determined as 91 nM.

In the case of `O=C(O)C1CC1c1ccc(OCc2cccc(SCC3CC3)n2)c(Cl)c1` (stereo not drawn) [Example 128, 2-[3-chloro-4-(6-cyclopropylmethylsulfanyl-pyridin-2-ylmethoxy)-phenyl]-cyclopropane carboxylic acid], the EC50 was 42 nM.

Take `CC(C)Sc1ncccc1COc1c(F)cc(C2CC2C(=O)O)cc1F` (stereo not drawn) [Example 138, 2-[3,5-difluoro-4-(2-isopropylsulfanyl-pyridin-3-ylmethoxy)-phenyl]-cyclopropane carboxylic acid]: the EC50 was found to be 56 nM.

Regarding `O=C(O)CCc1ccc(OCc2cccc(SCC3CC3)n2)c(Cl)c1` [Example 142, 3-[3-chloro-4-(6-cyclopropylmethylsulfanyl-pyridin-2-ylmethoxy)-phenyl]-propionic acid], the EC50 stood at 11 nM.

Regarding `O=C(O)CCc1ccc(OCc2cccnc2SCC2CC2)c(F)c1` [Example 147, 3-[4-(2-cyclopropylmethylsulfanyl-pyridin-3-ylmethoxy)-3-fluoro-phenyl]-propionic acid], the EC50 worked out at 54 nM.

For `Cc1ccc(COc2ccc(CCC(=O)O)cc2Cl)c(SC(C)C)n1` [Example 160, 3-[3-chloro-4-(2-isopropylsulfanyl-6-methyl-pyridin-3-ylmethoxy)-phenyl]-propionic acid], the concentration giving a half-maximal response (EC50) was 202 nM.
